Data taken from ChEMBL document CHEMBL5329202, “New aryl-/heteroarylpiperazine derivatives of 1,7-dimethyl-8,9-diphenyl-4-azatricyclo[5.2.1.02,6]dec-8-ene-3,5,10-trione: Synthesis and preliminary studies of biological activities” (Bioorg Med Chem, 2023).
Activity calls are given as the source filed them. No cut-off for these calls is given here.

Experiments:
K562 [1] = assay: Induction of apoptosis in human K562 cells assessed as viable cells at IC50 incubated for 72 hrs by Annexin V-FITC/PI staining based flow cytometric analysis (reference value: 89 %); assay type: functional
[2] = Selectivity index, ratio of IC50 for cytotoxicity against human HMEC-1 cells to IC50 for cytotoxicity against human PC-3 cells; assay type: toxicity, cell-based; settings: HMEC-1 cells and PC-3 cells, read-out: Ratio IC50
HCT-116 [3] = assay: Induction of apoptosis in human HCT-116 cells assessed as early apoptotic cells at IC50 incubated for 72 hrs by Annexin V-FITC/PI staining based flow cytometric analysis (reference value: 7.8 %); assay type: functional
SW-620 = assay: Cytotoxicity against human SW620 cells assessed as cell growth inhibition measured after 72 hrs by MTT assay; assay type: functional, cell-based; settings: SW-620, 72 h
K562 [4] = assay: Cytotoxicity against human K562 cells assessed as cell growth inhibition measured after 72 hrs by MTT assay; assay type: functional, cell-based; settings: K562, 72 h
K562 [5] = assay: Induction of apoptosis in human K562 cells assessed as early apoptotic cells at IC50 incubated for 72 hrs by Annexin V-FITC/PI staining based flow cytometric analysis (reference value: 1.3 %); assay type: functional
K562 [6] = assay: Induction of apoptosis in human K562 cells assessed as increase in caspase-3/7 activity at IC50 incubated for 24 hrs by Glo assay relative to control; assay type: functional
Rattus norvegicus = species: Rattus norvegicus; assay: Displacement of [3H]-QNB from Sprague-Dawley rat Muscarinic acetylcholine receptor assessed as inhibition constant measured after 45 mins by competitive binding assay
K562 [7] = assay: Induction of apoptosis in human K562 cells assessed as late apoptotic cells at IC50 incubated for 72 hrs by Annexin V-FITC/PI staining based flow cytometric analysis (reference value: […]); assay type: functional
[8] = Selectivity index, ratio of IC50 for cytotoxicity against human HMEC-1 cells to IC50 for cytotoxicity against human K562 cells; assay type: toxicity, cell-based; settings: HMEC-1 cells and K562 cells, read-out: Ratio IC50
HMEC-1 [9] = assay: Induction of apoptosis in human HMEC-1 cells assessed as necrotic cells at IC50 incubated for 72 hrs by Annexin V-FITC/PI staining based flow cytometric analysis (reference value: 2.4 %); assay type: functional
K562 [10] = assay: Induction of apoptosis in human K562 cells assessed as necrotic cells at IC50 incubated for 72 hrs by Annexin V-FITC/PI staining based flow cytometric analysis (reference value: 7.1 %); assay type: functional
[11] = Selectivity index, ratio of IC50 for cytotoxicity against human HMEC-1 cells to IC50 for cytotoxicity against human HCT-116 cells; assay type: toxicity, cell-based; settings: HMEC-1 cells and HCT-116 cells, read-out: Ratio IC50
[12] = Selectivity index, ratio of IC50 for cytotoxicity against human HMEC-1 cells to IC50 for cytotoxicity against human A549 cells; assay type: toxicity, cell-based; settings: HMEC-1 cells and A549 cells, read-out: Ratio IC50
HCT-116 [13] = assay: Induction of apoptosis in human HCT-116 cells assessed as viable cells at IC50 incubated for 72 hrs by Annexin V-FITC/PI staining based flow cytometric analysis (reference value: 90.5 %); assay type: functional
HCT-116 [14] = assay: Induction of apoptosis in human HCT-116 cells assessed as late apoptotic cells at IC50 incubated for 72 hrs by Annexin V-FITC/PI staining based flow cytometric analysis (reference value: 1.6 %); assay type: functional
K562 [15] = assay: Antiproliferative activity against human K562 cells assessed as reduction in cell number at IC50 measured after 72 hrs by trypan blue dye based assay relative to control; assay type: functional; set-up: scale not given: the % may be the effect or the level left
[16] = Selectivity index, ratio of IC50 for cytotoxicity against human HMEC-1 cells to IC50 for cytotoxicity against human SW620 cells
[17] = target: T1, 5-hydroxytryptamine receptor 1A (Rattus norvegicus) (UniProt P19327); assay: Agonist activity at Sprague-Dawley rat hippocampal membrane 5-HT1A receptor assessed as stimulation of [35S]GTPgammaS binding by measuring maximal efficacy measured after 90 mins by scintillation counter analysis relative to control; assay type: functional, cell membranes; settings: Hippocampus, filed as agonist
T1 sequence (whole entry): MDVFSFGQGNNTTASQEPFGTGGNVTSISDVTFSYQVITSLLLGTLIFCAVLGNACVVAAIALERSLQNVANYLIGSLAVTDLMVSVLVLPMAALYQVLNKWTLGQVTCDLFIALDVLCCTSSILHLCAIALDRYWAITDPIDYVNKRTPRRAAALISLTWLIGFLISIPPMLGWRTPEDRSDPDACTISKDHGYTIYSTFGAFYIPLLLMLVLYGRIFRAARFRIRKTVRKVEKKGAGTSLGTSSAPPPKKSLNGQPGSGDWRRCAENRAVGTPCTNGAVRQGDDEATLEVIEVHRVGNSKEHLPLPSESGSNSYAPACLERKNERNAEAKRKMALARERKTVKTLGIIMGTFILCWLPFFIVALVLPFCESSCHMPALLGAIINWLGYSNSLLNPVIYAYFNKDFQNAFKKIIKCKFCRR

[18] = Selectivity index, ratio of IC50 for cytotoxicity against human HMEC-1 cells to IC50 for cytotoxicity against human SW480 cells
MDA-MB-231 = assay: Cytotoxicity against human MDA-MB-231 cells assessed as cell growth inhibition measured after 72 hrs by MTT assay; assay type: functional, cell-based; settings: MDA-MB-231, 72 h
HepG2 = assay: Cytotoxicity against human HepG2 cells assessed as cell growth inhibition measured after 72 hrs by MTT assay; assay type: functional, cell-based; settings: HepG2, 72 h
HCT-116 [19] = assay: Induction of apoptosis in human HCT-116 cells assessed as necrotic cells at IC50 incubated for 72 hrs by Annexin V-FITC/PI staining based flow cytometric analysis (reference value: 0.1 %); assay type: functional
[20] = Cytotoxicity against human HMEC-1 cells assessed as cell growth inhibition measured after 72 hrs by MTT assay; assay type: toxicity, cell-based
D(2) dopamine receptor = D(2) dopamine receptor (Rattus norvegicus, UniProt P61169); assay: Antagonist activity at Sprague-Dawley rat striatum membrane D2 receptor assessed as inhibition of dopamine stimulated [35S]GTPgammaS binding measured after 90 mins by scintillation counter analysis; assay type: functional, cell membranes
Histamine H1 receptor = Histamine H1 receptor (Rattus norvegicus, UniProt P31390); assay: Displacement of [3H]pyrilamine from Sprague-Dawley rat H1 receptor assessed as inhibition constant measured after 30 mins by competitive binding assay
HCT-116 [21] = assay: Antiproliferative activity against human HCT-116 cells assessed as reduction in cell number at IC50 measured after 72 hrs by trypan blue dye based assay relative to control; assay type: functional; set-up: scale not given: the % may be the effect or the level left
[22] = Selectivity index, ratio of IC50 for cytotoxicity against human HMEC-1 cells to IC50 for cytotoxicity against human MDA-MB-231 cells; assay type: toxicity, cell-based; settings: HMEC-1 cells and MDA-MB-231 cells, read-out: Ratio IC50
[23] = Selectivity index, ratio of IC50 for cytotoxicity against human HMEC-1 cells to IC50 for cytotoxicity against human HepG2 cells; assay type: toxicity, cell-based; settings: HMEC-1 cells and HepG2 cells, read-out: Ratio IC50
[24] = target: T2, 5-hydroxytryptamine receptor 1A (Rattus norvegicus, UniProt P19327); assay: Agonist activity at Sprague-Dawley rat hippocampal membrane 5-HT1A receptor assessed as stimulation of [35S]GTPgammaS binding measured after 90 mins by scintillation counter analysis; assay type: functional, cell membranes, Hippocampus
T2 sequence (P19327 whole entry): T1 sequence (whole entry)

HMEC-1 [25] = assay: Antiproliferative activity against human HMEC-1 cells assessed as reduction in cell viability at IC50 measured after 72 hrs by trypan blue dye based assay relative to control; assay type: toxicity; settings: hmec-1, 72 h

Chain of Histamine H1 receptor (P31390 whole entry): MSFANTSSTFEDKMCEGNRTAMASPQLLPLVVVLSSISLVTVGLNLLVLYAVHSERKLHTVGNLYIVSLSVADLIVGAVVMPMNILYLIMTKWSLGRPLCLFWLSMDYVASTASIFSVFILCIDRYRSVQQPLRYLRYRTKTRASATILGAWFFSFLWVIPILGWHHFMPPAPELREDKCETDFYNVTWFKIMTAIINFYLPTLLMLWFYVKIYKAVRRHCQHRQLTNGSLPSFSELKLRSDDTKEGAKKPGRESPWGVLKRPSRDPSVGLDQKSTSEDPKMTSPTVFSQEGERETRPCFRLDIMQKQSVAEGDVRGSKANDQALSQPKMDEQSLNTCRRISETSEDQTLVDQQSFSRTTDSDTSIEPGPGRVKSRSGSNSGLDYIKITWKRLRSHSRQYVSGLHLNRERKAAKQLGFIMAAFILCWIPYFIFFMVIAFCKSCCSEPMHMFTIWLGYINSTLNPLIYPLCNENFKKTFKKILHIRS
Chain of D(2) dopamine receptor (P61169 whole entry): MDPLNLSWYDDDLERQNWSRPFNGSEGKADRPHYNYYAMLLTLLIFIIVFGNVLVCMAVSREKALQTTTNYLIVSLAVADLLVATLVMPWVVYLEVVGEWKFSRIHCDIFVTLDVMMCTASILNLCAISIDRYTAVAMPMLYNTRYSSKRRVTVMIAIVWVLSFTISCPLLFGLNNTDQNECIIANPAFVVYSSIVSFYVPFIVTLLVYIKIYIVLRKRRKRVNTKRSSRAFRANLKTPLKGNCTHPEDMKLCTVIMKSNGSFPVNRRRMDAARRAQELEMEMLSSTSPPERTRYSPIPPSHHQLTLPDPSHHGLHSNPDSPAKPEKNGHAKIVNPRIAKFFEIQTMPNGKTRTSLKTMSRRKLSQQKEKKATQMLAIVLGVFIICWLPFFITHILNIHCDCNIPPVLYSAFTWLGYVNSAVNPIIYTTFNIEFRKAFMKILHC

Structure (SMILES)	Activity (K562 [1])	selectivity ratio [2]	Activity (HCT-116 [3])	IC50 (SW-620)	IC50 (K562 [4])	Activity (K562 [5])	Activity (K562 [6])	Activity (Rattus norvegicus)	Activity (K562 [7])	selectivity ratio [8]	Activity (HMEC-1 [9])	Activity (K562 [10])	selectivity ratio [11]	selectivity ratio [12]	Activity (HCT-116 [13])	Activity (HCT-116 [14])	Activity (K562 [15])	Ratio IC50 [16]	Emax [17]	Ratio IC50 [18]	also measured
CC12C(=O)C(C)(C(c3ccccc3)=C1c1ccccc1)C1C(=O)N(CCCCN3CCN(c4cccc(Cl)c4)CC3)C(=O)C12 (centres undefined)	59.5%	2.55	15.7%	15.9 µM	4.38 µM	5.2%	74%	inactive	25.4%	5.01	2%	9.9%	3.54	0.86	81.5%	2.5%	82%	1.38	162%	2.64	IC50 (MDA-MB-231): 40.6 µM; IC50 (HepG2): 14.1 µM; Activity (HCT-116 [19]): 0.3%; IC50 at 72 h [20]: 21.9 µM; IC50 (D(2) dopamine receptor): 24.8 µM; Ki (Histamine H1 receptor): 0.08 µM; Activity (HCT-116 [21]): 26%; selectivity ratio [22]: 0.54; selectivity ratio [23]: 1.55; EC50 [24]: 0.6 µM; Activity (HMEC-1 [25]): Non-Toxic
CC12C(=O)C(C)(C(c3ccccc3)=C1c1ccccc1)C1C(=O)N(CCCCN3CCN(c4ccccc4F)CC3)C(=O)C12 (centres undefined)	56.9%	1.92	23%	22.4 µM	5.65 µM	5.2%	74%	inactive	27.3%	3.13	5%	10.6%	3.95	0.58	74.9%	1.9%	82%	0.79	152%	2.28	IC50 (MDA-MB-231): 56.5 µM; IC50 (HepG2): 26.8 µM; Activity (HCT-116 [19]): 0.2%; IC50 at 72 h [20]: 17.7 µM; IC50 (D(2) dopamine receptor): 18.3 µM; Ki (Histamine H1 receptor): 0.007 µM; Activity (HCT-116 [21]): 35%; selectivity ratio [22]: 0.31; selectivity ratio [23]: 0.66; EC50 [24]: 1.7 µM; Activity (HMEC-1 [25]): Non-Toxic
CC12C(=O)C(C)(C(c3ccccc3)=C1c1ccccc1)C1C(=O)N(CCCCN3CCN(c4ccccc4Cl)CC3)C(=O)C12 (centres undefined)	67%	2.63	36.4%	6.2 µM	4.01 µM	5.2%	22%	inactive	19.4%	5.15	5.1%	8.4%	5.77	0.82	58%	5%	61%	3.33	145%	3.9	IC50 (MDA-MB-231): 24.3 µM; IC50 (HepG2): 12.9 µM; Activity (HCT-116 [19]): 0.6%; IC50 at 72 h [20]: 20.6 µM; IC50 (D(2) dopamine receptor): 8.4 µM; Ki (Histamine H1 receptor): 0.03 µM; Activity (HCT-116 [21]): 29%; selectivity ratio [22]: 0.85; selectivity ratio [23]: 1.6; EC50 [24]: 0.1 µM; Activity (HMEC-1 [25]): Non-Toxic
CC12C(=O)C(C)(C(c3ccccc3)=C1c1ccccc1)C1C(=O)N(CCCCN3CCN(c4ccccn4)CC3)C(=O)C12 (centres undefined)	36.1%	1.73	12.1%	16 µM	8.86 µM	6.3%	74%	inactive	43.8%	4.13	1.6%	13.7%	4.37	2.28	85.5%	2.1%	79%	2.29	168%	3.02	IC50 (MDA-MB-231): 15.2 µM; IC50 (HepG2): 14.6 µM; Activity (HCT-116 [19]): 0.4%; IC50 at 72 h [20]: 36.6 µM; IC50 (D(2) dopamine receptor): 50.3 µM; Ki (Histamine H1 receptor): 0.6 µM; Activity (HCT-116 [21]): 28%; selectivity ratio [22]: 2.41; selectivity ratio [23]: 2.51; EC50 [24]: 0.7 µM; Activity (HMEC-1 [25]): Non-Toxic
